According to ChEMBL document CHEMBL3751701, “Class I and Class II Lanthipeptides Produced by Bacillus spp” (2015):
In brackets after ≈: the same amount, converted by molar mass.

Key:
Lactococcus lactis = experiment: Antibacterial activity against Lactococcus lactis MG1614 by agar diffusion assay; type: functional
Micrococcus luteus = experiment: Antibacterial activity against Micrococcus luteus […] 8166 by agar diffusion assay; type: functional
Bacillus thuringiensis [1] = experiment: Antibacterial activity against Bacillus thuringiensis BMB171 after 120 mins by agar well diffusion method; type: functional; settings: BMB171, 2 h
Bacillus subtilis [2] = experiment: Antibacterial activity against Bacillus subtilis 168 after 120 mins by agar well diffusion method; type: functional; settings: subsp. subtilis str. 168, 2 h
Bacillus firmus = experiment: Antibacterial activity against Bacillus firmus BCRC 11944 after 120 mins by agar well diffusion method; type: functional; settings: Cytobacillus firmus, BCRC 11944, 2 h
Enterococcus faecalis [3] = experiment: Antibacterial activity against Enterococcus faecalis Bom3 after 120 mins by agar well diffusion method; type: functional; settings: Bom3, 2 h
Staphylococcus sciuri = experiment: Antibacterial activity against Staphylococcus sciuri Bom1 after 120 mins by agar well diffusion method; settings: Bom1, 2 h
Microbacterium = experiment: Antibacterial activity against Microbacterium Pri2 after 120 mins by agar well diffusion method; type: functional; settings: Pri2, 2 h
Bacillus cereus = experiment: Antibacterial activity against Bacillus cereus UW85 after 120 mins by agar well diffusion method; type: functional; settings: UW85, 2 h
Bacillus pumilus = experiment: Antibacterial activity against Bacillus pumilus SCG I after 120 mins by agar well diffusion method; type: functional; settings: 2 h
Bacillus thuringiensis [4] = experiment: Antibacterial activity against Bacillus thuringiensis YBT-1518 after 120 mins by agar well diffusion method; type: functional; settings: YBT-1518, 2 h
Bacillus subtilis [5] = experiment: Antibacterial activity against Bacillus subtilis BSn5 after 120 mins by agar well diffusion method; type: functional; settings: BSn5, 2 h
Kocuria rhizophila = experiment: Antibacterial activity against Micrococcus luteus ATCC 9341 by microdilution method; type: functional
Enterococcus faecalis [6] = experiment: Antibacterial activity against Enterococcus faecalis ATCC 51299 by microdilution method; type: functional
Staphylococcus aureus [7] = experiment: Antibacterial activity against methicillin-resistant Staphylococcus aureus ATCC 43300 by microdilution method; type: functional
Staphylococcus aureus [8] = experiment: Antibacterial activity against Staphylococcus aureus ATCC 29213 by microdilution method; type: functional
Enterococcus faecalis [9] = experiment: Antibacterial activity against Enterococcus faecalis ATCC 29212 by microdilution method; type: functional

With `C=C(NC(=O)[C@H](NC(=O)[C@@H](CCCCN)NC(=O)[C@@H]1CSC(C)C2NC(=O)[C@@H](CC(C)C)NC(=O)C(NC(=O)[C@H](CCC(N)=O)NC(=O)[C@H](CC(C)C)NC(=O)[C@H](Cc3ccccc3)NC(=O)[C@@H]3CSC(C)C(NC(=O)[C@H](NC(=O)[C@@H]4CSC(C)C(NC(=O)[C@H]5CSC[C@H](NC(=O)[C@H](CCCCN)NC(=O)[C@@H](N)Cc6c[nH]c7ccccc67)C(=O)N[C@@H](CCC(=O)O)C(=O)NC(=C)C(=O)N[C@@H](CC(C)C)C(=O)N5)C(=O)N5CCC[C@@H]5C(=O)NCC(=O)N4)C(C)C)C(=O)NCC(=O)N[C@@H](C)C(=O)N[C@@H](CC(C)C)C(=O)N[C@@H](CCC(N)=O)C(=O)N/C(=C\C)C(=O)N3)C(C)SC[C@@H](NC2=O)C(=O)N[C@H](CC(N)=O)C(=O)N1)[C@H](C)CC)C(=O)N[C@@H](CCCCN)C(=O)O` (some centres not stated) the MIC (Lactococcus lactis) was 0.301 µM (≈ 1 µg/mL) and the MIC (Micrococcus luteus) was 0.0151 µM (≈ 0.0501 µg/mL).
For `C=C1NC(=O)[C@@H]2CSC(C)C(NC(=O)[C@@H]3CSC(C)C4NC(=O)CNC(=O)C(NC(=O)[C@H](CCCCN)NC(=O)[C@@H]5CSC[C@H](NC(=O)[C@@H](NC(=O)[C@H](CCCCN)NC(=O)[C@@H](NC(=O)[C@@H](NC(=O)/C(=C/C)NC(=O)/C(=C\C)NC(=O)[C@H](Cc6c[nH]c7ccccc67)NC(=O)C(=O)CC)[C@@H](C)CC)C(C)C)C(C)C)C(=O)N[C@@H](CCCCN)C(=O)N[C@@H](C)C(=O)N[C@@H](C(C)C)C(=O)N5)C(C)SC[C@H](NC4=O)C(=O)N[C@@H]([C@@H](C)CC)C(=O)N3)C(=O)N/C(=C\C)C(=O)N[C@@H](CSC[C@@H](C(=O)N[C@@H](CCCCN)C(=O)O)NC(=O)[C@H](CC(N)=O)NC1=O)C(=O)N2` (some centres not stated), the MIC (Bacillus thuringiensis [1]) was 1.3 µM (≈ 3.62 µg/mL), the MIC (Bacillus subtilis [2]) was 5.2 µM (≈ 14.5 µg/mL) and the MIC (Bacillus firmus) was 0.326 µM (≈ 0.909 µg/mL). It also gave an MIC (Enterococcus faecalis [3]) of 2.6 µM (≈ 7.25 µg/mL), an MIC (Staphylococcus sciuri) of 1.95 µM (≈ 5.44 µg/mL) and an MIC (Microbacterium) of 5.2 µM (≈ 14.5 µg/mL). For the same molecule, the MIC (Bacillus cereus) was 7.8 µM (≈ 21.7 µg/mL), the MIC (Bacillus pumilus) was 0.65 µM (≈ 1.81 µg/mL) and the MIC (Bacillus thuringiensis [4]) was 1.3 µM (≈ 3.62 µg/mL). The MIC (Bacillus subtilis [5]) was 5.2 µM (≈ 14.5 µg/mL).
Molecule `C=C(NC(=O)[C@H](NC(=O)[C@@H](CCCCN)NC(=O)[C@@H]1CSC(C)C2NC(=O)[C@@H]([C@H](C)CC)NC(=O)C(NC(=O)[C@@H](CCC(N)=O)NC(=O)[C@@H](CC(C)C)NC(=O)[C@@H](Cc3ccccc3)NC(=O)[C@@H]3CSC(C)C(NC(=O)[C@H](NC(=O)[C@@H]4CSC(C)C(NC(=O)[C@H]5CSC[C@@H](NC(=O)[C@@H](CCCCN)NC(=O)[C@H](N)Cc6c[nH]c7ccccc67)C(=O)N[C@H](CCC(=O)O)C(=O)NC(=C)C(=O)N[C@H](C(C)C)C(=O)N5)C(=O)N5CCC[C@@H]5C(=O)NCC(=O)N4)C(C)C)C(=O)NCC(=O)N[C@@H](CC(C)C)C(=O)N[C@@H](CC(C)C)C(=O)N[C@H](CCC(N)=O)C(=O)N/C(=C\C)C(=O)N3)C(C)SC[C@@H](NC2=O)C(=O)N[C@H](CC(N)=O)C(=O)N1)[C@H](C)CC)C(=O)N[C@@H](CCCCN)C(=O)O` (some centres not stated) has an MIC (Kocuria rhizophila) of 1.16 µM (≈ 3.89 µg/mL), an MIC (Enterococcus faecalis [6]) of 2.32 µM (≈ 7.77 µg/mL) and an MIC (Staphylococcus aureus [7]) of 2.32 µM (≈ 7.77 µg/mL). For the same molecule, the MIC (Staphylococcus aureus [8]) was 1.16 µM (≈ 3.89 µg/mL) and the MIC (Enterococcus faecalis [9]) was 4.84 µM (≈ 16.2 µg/mL).
